In one assay the test system is EAE (RAT). As to the kind of experiment: Ability of peptide mixed in CFA to cause EAE. It is filed as in vivo. To be noted: rats with EAE / rats immunized with the peptide alone in CFA. The protocol:
The peptides were tested for their ability to cause EAE when mixed in CFA. […] It was seen that Ala4, Ala6, Ala7, and Ala8 are poor binders to I-E, implying that these residues 4F,6N,7I, and 8V are critical in MHC binding. […] Despite their inability to bind well to I-E, peptides ala6 and ala8 block the development of EAE when mixed with native peptide in a 5:1 molar ratio with CFA (0/6 sick with native plus ala6, 2/6 with native plus ala8, compared to 11/12 with native peptide alone). These competitor peptides Ala6 and Ala8, though poor I-E binders can apparently compete with native peptide and antagonize the T-cell receptor.

The next assay relates to I-E. Kind of assay: MHC I-E binding of substituted MBP 87-99 peptides. The note with it: for IC50: read-out: (M*C) IC50 I-E Binding. On the set-up: species or system rat. An excerpt:
A set of substituted peptides based on the sequence VHFFKNIVTPRT (Seq. ID No. 39), which is identical in rats, mice and human myelin basic protein (MBP), and corresponds to the I-E restricted epitope MBP 87-99 in the rat was produced. The peptides are shown in Table 1 (Seq. ID Nos. 39 to 52 respectively) MHC binding was measure say described in Smilek et al, 1991, Gautam et al 1992a&b.

The subject of another assay is 87-99 T-cell line. Kind of assay: Proliferation of encephalitogenic T-cell line raised against native peptide (87-99). It is filed as cell-based, rat. To be noted: stimulation of T-cell line raised against native 87-99, grades negative to 4+, no key printed. The protocol: As noted above, candidate peptide analogues are first tested for their property of causing or inhibiting proliferation of T-cell lines. In the proliferation assay, MBP reactive T-cell lines may be used as target cells. T-cell lines are established from lymph nodes taken from rats injected with MBP. Lymph node cells are isolated and cultured for 5 to 8 days with MBP and IL-2 as a source of T-cell growth factors. Viable cells are recovered and a second round of stimulation is performed with MBP and irradiated splenocytes as a source of growth factors. After 5 to 6 passages in this manner, the proliferative potential of the cell lines are determined. MBP-reactive lines are used in the proliferation assay. In this assay, T-cell lines are cultured for three days with various concentrations of peptide analogues and irradiated, autologous splenocytes. After three days, 0.5-1.0 μCi of [^3H]-thymidine is added for 12-16 hours. Cultures are harvested and incorporated counts determined. Mean CPM and standard error of the mean are calculated from triplicate cultures.
Development of MBP-specific T-cell lines in the rat: T-cell lines are selected from LN or SC (spinal cords) of rats immunized with guinea pig myelin basic protein or with MBP peptide (200 μg) in CFA. Supernatants from ConA-stimulated Lewis rat splenocytes are used as the source of IL-2 to expand Ag-stimulated T-cells.
Proliferation Assay: Proliferative responses were determined as described previously (Zamvil, et al., Nature 317:355, 1985). 1×10^4 T-cells were cultured with 5×10^5 X-irradiated (3,000 rad) PL/J splenic APC in 0.2 ml of culture media in 96 well flat-bottomed microtiter plates (Falcon, 3072). Peptides were added to culture giving the final concentrations indicated. At 48 hours incubation, each well was pulsed with 1 μCi ^3H-thymidine and harvested 16 hours later. The mean c.p.m. thymidine incorporation was calculated for triplicate cultures. Standard deviations from replicate cultures were within 10% mean value. Proliferation assays were performed in 96-well microtiter plates. Briefly, 2×10^4 T-cells and 10^6 irradiated thymocytes/well were incubated with stimulation medium only, Con A, or antigen. The cultures were harvested onto glass fiber filters and TdR uptake was assessed by liquid scintillation. Mean cpm were calculated from triplicate wells. In some experiments, competitor peptides, or anti I-A (OX-6) or anti-I-E antibodies (OX-17) were used to evaluate which MHC molecules were used to restrict the T-cell response, or to determine whether peptides could antagonize stimulation by the native peptide.

The next assay deals with EAE. Kind of assay: Competition with Ala6 and Ala5 for prevention of EAE with MBP (Table 3). It is filed as in vivo, mice. The protocol:
Incidence of EAE was expressed as number of mice with clinical EAE/number of mice immunized. For the induction of EAE, MBP peptide was dissolved in phosphate buffered saline (PBS) and emulsified with complete Freund's adjuvant (CFA) in a 1:1 mixture of PBS and CFA. Mice were injected with 0.2 ml emulsion at the base of the tail. On the same day and 48 h later, pertussis toxin (List Chemicals, Campbell, Calif.) was injected intravenously. Mice were examined daily for signs of EAE. For prevention of EAE, animals were immunized with MBP (0.2 mg), or in a mixture with the competitor peptide (1 mg).

“And” between values parts separate entries of the source, which are not always exact repeats. Equal values may be shown once. “Also recorded” adds a separate entry of the source. Some results are limits rather than exact numbers.

Consider `CC[C@H](C)[C@H](NC(=O)[C@H](CC(N)=O)NC(=O)[C@H](CCCCN)NC(=O)[C@H](Cc1ccccc1)NC(=O)[C@H](Cc1ccccc1)NC(=O)[C@H](Cc1c[nH]cn1)NC(=O)[C@H](C)N)C(=O)N[C@H](C(=O)N[C@H](C(=O)N1CCC[C@H]1C(=O)N[C@@H](CCCNC(=N)N)C(=O)N[C@H](C(=O)N1CCC[C@H]1C(=O)O)[C@@H](C)O)[C@@H](C)O)C(C)C` [Ala 1], for which the “EAE (RAT)” value with EAE (RAT) is given as 6/6.
`CC[C@H](C)[C@H](NC(=O)[C@H](CC(N)=O)NC(=O)[C@H](CCCCN)NC(=O)[C@H](Cc1ccccc1)NC(=O)[C@H](Cc1ccccc1)NC(=O)[C@H](C)NC(=O)[C@@H](N)C(C)C)C(=O)N[C@H](C(=O)N[C@H](C(=O)N1CCC[C@H]1C(=O)N[C@@H](CCCNC(=N)N)C(=O)N[C@H](C(=O)N1CCC[C@H]1C(=O)O)[C@@H](C)O)[C@@H](C)O)C(C)C` [Ala 2]: the “EAE (RAT)” value in the assay on EAE (RAT) is on record as 6/6.
Still for that read-out and setting: the result for `CC[C@H](C)[C@H](NC(=O)[C@H](CC(N)=O)NC(=O)[C@H](CCCCN)NC(=O)[C@H](Cc1ccccc1)NC(=O)[C@H](C)NC(=O)[C@H](Cc1c[nH]cn1)NC(=O)[C@@H](N)C(C)C)C(=O)N[C@H](C(=O)N[C@H](C(=O)N1CCC[C@H]1C(=O)N[C@@H](CCCNC(=N)N)C(=O)N[C@H](C(=O)N1CCC[C@H]1C(=O)O)[C@@H](C)O)[C@@H](C)O)C(C)C` [Ala 3] reads 6/6.
In general, IC50 refers to the concentration that gives 50% inhibition. For `CC[C@H](C)[C@H](NC(=O)[C@H](CC(N)=O)NC(=O)[C@H](CCCCN)NC(=O)[C@H](C)NC(=O)[C@H](Cc1ccccc1)NC(=O)[C@H](Cc1c[nH]cn1)NC(=O)[C@@H](N)C(C)C)C(=O)N[C@H](C(=O)N[C@H](C(=O)N1CCC[C@H]1C(=O)N[C@@H](CCCNC(=N)N)C(=O)N[C@H](C(=O)N1CCC[C@H]1C(=O)O)[C@@H](C)O)[C@@H](C)O)C(C)C` [Ala 4], the “binding to I-E / MHC (in words)” value in the assay on I-E is “poor binders”. The IC50 at I-E is more than 200 µM. The “EAE (RAT)” value in the assay on EAE (RAT) is given as 0/6; in the assay on EAE (RAT) (listed as Ala4), “incapable of causing EAE; also recorded: does not cause EAE”. Besides, the Prolif. result in the assay with 87-99 T-cell line is “negative”; in the assay with 87-99 T-cell line (listed as Ala4), “does not stimulate”.
For the compound `CC[C@H](C)[C@H](NC(=O)[C@H](CC(N)=O)NC(=O)[C@H](C)NC(=O)[C@H](Cc1ccccc1)NC(=O)[C@H](Cc1ccccc1)NC(=O)[C@H](Cc1c[nH]cn1)NC(=O)[C@@H](N)C(C)C)C(=O)N[C@H](C(=O)N[C@H](C(=O)N1CCC[C@H]1C(=O)N[C@@H](CCCNC(=N)N)C(=O)N[C@H](C(=O)N1CCC[C@H]1C(=O)O)[C@@H](C)O)[C@@H](C)O)C(C)C` [Ala 5], the “Incidence of EAE” value is listed as “had a preventative effect on EAE” with EAE (native MBP peptide 0.2 mg mixed with competitor peptide 1 mg); 2/6 in the assay on EAE (native MBP peptide 0.2 mg mixed with competitor peptide 1 mg, listed as ala 5); 0/6 with EAE (peptide alone 0.2 mg in CFA, number with clinical EAE/number immunized). The figures for the “EAE (RAT)” value with EAE (RAT) and with EAE (RAT) (listed as Ala5) were 0/6 and “incapable of causing EAE”, respectively. Besides, the Prolif. result in the assay with 87-99 T-cell line is reported as “negative”.
As to `CC[C@H](C)[C@H](NC(=O)[C@H](CC(N)=O)NC(=O)[C@H](CCCCN)NC(=O)[C@H](Cc1ccccc1)NC(=O)[C@H](Cc1ccccc1)NC(=O)[C@H](Cc1c[nH]cn1)NC(=O)[C@@H](N)C(C)C)C(=O)N[C@H](C(=O)N[C@@H](C)C(=O)N1CCC[C@H]1C(=O)N[C@@H](CCCNC(=N)N)C(=O)N[C@H](C(=O)N1CCC[C@H]1C(=O)O)[C@@H](C)O)C(C)C` [Ala 9], the “EAE (RAT)” value in the assay on EAE (RAT) was 1/6; in the assay with EAE (RAT) (listed as Ala9), 1/6 and nonencephalitogenic. In addition, the values for the Prolif. entry in the assay with 87-99 T-cell line and in the assay with 87-99 T-cell line (listed as Ala9) were “negative” and “weak stimulators”, respectively.
On to `CC[C@H](C)[C@H](NC(=O)[C@H](CC(N)=O)NC(=O)[C@H](CCCCN)NC(=O)[C@H](Cc1ccccc1)NC(=O)[C@H](Cc1ccccc1)NC(=O)[C@H](Cc1c[nH]cn1)NC(=O)[C@@H](N)C(C)C)C(=O)N[C@H](C(=O)N[C@H](C(=O)N[C@@H](C)C(=O)N[C@@H](CCCNC(=N)N)C(=O)N[C@H](C(=O)N1CCC[C@H]1C(=O)O)[C@@H](C)O)[C@@H](C)O)C(C)C` [Ala 10], for which the “EAE (RAT)” value with EAE (RAT) was “incapable of causing EAE and nonencephalitogenic and 0/6”.
As for `CC[C@H](C)[C@H](NC(=O)[C@H](CC(N)=O)NC(=O)[C@H](CCCCN)NC(=O)[C@H](Cc1ccccc1)NC(=O)[C@H](Cc1ccccc1)NC(=O)[C@H](Cc1c[nH]cn1)NC(=O)[C@@H](N)C(C)C)C(=O)N[C@H](C(=O)N[C@H](C(=O)N1CCC[C@H]1C(=O)N[C@@H](C)C(=O)N[C@H](C(=O)N1CCC[C@H]1C(=O)O)[C@@H](C)O)[C@@H](C)O)C(C)C` [Ala 11], the IC50 on I-E stood at 20 µM. In the assay on EAE (RAT), the “EAE (RAT)” value is on record as 4/6. For the same compound, the Prolif. entry in the assay on 87-99 T-cell line was “negative”.
As for `CC[C@H](C)[C@H](NC(=O)[C@H](CC(N)=O)NC(=O)[C@H](CCCCN)NC(=O)[C@H](Cc1ccccc1)NC(=O)[C@H](Cc1ccccc1)NC(=O)[C@H](Cc1c[nH]cn1)NC(=O)[C@@H](N)C(C)C)C(=O)N[C@H](C(=O)N[C@H](C(=O)N1CCC[C@H]1C(=O)N[C@@H](CCCNC(=N)N)C(=O)N[C@@H](C)C(=O)N1CCC[C@H]1C(=O)O)[C@@H](C)O)C(C)C` [Ala 12], in the assay on EAE (RAT), the “EAE (RAT)” value is on record as 6/6.
In the case of `CC[C@H](C)[C@H](NC(=O)[C@H](CC(N)=O)NC(=O)[C@H](CCCCN)NC(=O)[C@H](Cc1ccccc1)NC(=O)[C@H](Cc1ccccc1)NC(=O)[C@H](Cc1c[nH]cn1)NC(=O)[C@@H](N)C(C)C)C(=O)N[C@H](C(=O)N[C@H](C(=O)N1CCC[C@H]1C(=O)N[C@@H](CCCNC(=N)N)C(=O)N[C@H](C(=O)N[C@@H](C)C(=O)O)[C@@H](C)O)[C@@H](C)O)C(C)C` [Ala 13], the IC50 at I-E was 10 µM. Besides, in the assay with EAE (RAT), the “EAE (RAT)” value was 3/6.

Source of the values: patent publication US20020076412A1, “METHODS FOR MODULATING THE IMMUNE SYSTEM” (priority 1987, published 2002).
